Assay results published in patent US6635641B2 (Agouron Pharmaceuticals, Inc., priority 2000, dated 2003).
Where a name gives a salt, the structure may show the parent alone.

These molecules were tested against T1, phosphorylated VEGF-R2Δ50 (FLVK-P) (Homo sapiens, UniProt P35968, DEL940-989/E990V) (assay: VEGF-R2 coupled spectrophotometric assay, phosphorylated construct (FLVK-P)). Details: not given.
T1 construct: VEGF-R2Δ50 contains residues 806-939 and 990-1171; made in house; host or cells: baculovirus/insect cells
Format: biochemical
Excerpt: A construct (VEGF-R2Δ50) of the cytosolic domain of human vascular endothelial growth factor receptor 2 (VEGF-R2) lacking the 50 central residues of the 68 residues of the kinase insert domain was expressed in a baculovirus/insect cell system. Of the 1356 residues of full-length VEGF-R2, VEGF-R2Δ50 contains residues 806-939 and 990-1171, and also one point mutation (E990V) within the kinase insert domain relative to wild-type VEGF-R2. See commonly assigned, co-pending U.S. patent application Ser. No. 09/390,326, filed Sep. 7, 1999, incorporated by reference herein, for discussion of VEGF constructs and expression systems. Autophosphorylation of the purified construct was performed by incubation of the enzyme at a concentration of 4 μM in the presence of 3 mM ATP and 40 mM MgCl2 in 100 mM Hepes, pH 7.5, containing 5% glycerol and 5 mM DTT, at 4° C. for 2 h. […] See Parast et al., Biochemistry, 37, 16788-16801 (1998).
The production of ADP from ATP that accompanies phosphoryl transfer was coupled to oxidation of NADH using phosphoenolpyruvate (PEP) and a system having pyruvate kinase (PK) and lactic dehydrogenase (LDH). The oxidation of NADH was monitored by following the decrease of absorbance at 340 nm (e340=6.22 cm^−1 mM^−1) using a Beckman DU 650 spectrophotometer. Assay conditions for phosphorylated VEGF-R2Δ50 (indicated as FLVK-P in the tables below) were the following: 1 mM PEP; 250 μM NADH; 50 units of LDH/mL; 20 units of PK/mL; 5 mM DTT; 5.1 mM poly(E4Y1); 1 mM ATP; and 25 mM MgCl2 in 200 mM Hepes, pH 7.5. Assay conditions for unphosphorylated VEGF-R2Δ50 (indicated as FLVK in the tables) were the following: 1 mM PEP; 250 μM NADH; 50 units of LDH/mL; 20 units of PK/mL; 5 mM DTT; 20 mM poly(E4Y1); 3 mM ATP; and 60 mM MgCl2 and 2 mM MnCl2 in 200 mM Hepes, pH 7.5. Assays were initiated with 5 to 40 nM of enzyme. Ki values were determined by measuring enzyme activity in the presence of varying concentrations of test compounds. The data were analyzed using Enzyme Kinetic and Kaleidagraph software.

T1 sequence (P35968 with tags, fused parts or gaps DEL940-989/E990V limits assumed): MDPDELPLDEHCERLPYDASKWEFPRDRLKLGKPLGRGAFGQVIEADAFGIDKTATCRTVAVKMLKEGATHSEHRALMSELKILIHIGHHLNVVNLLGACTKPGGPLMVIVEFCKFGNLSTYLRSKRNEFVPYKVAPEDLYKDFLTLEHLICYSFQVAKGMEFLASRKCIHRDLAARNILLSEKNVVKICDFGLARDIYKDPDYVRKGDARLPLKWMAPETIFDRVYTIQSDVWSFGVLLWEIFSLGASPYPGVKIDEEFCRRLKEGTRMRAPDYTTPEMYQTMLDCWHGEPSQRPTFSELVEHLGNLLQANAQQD

| SMILES | Ki |
| --- | --- |
| Cc1cc(NC(=O)c2cccc(CSc3nc(N)n[nH]3)c2)ccc1C(C)C [Example A-4, N-(4-Isopropyl-3-methylphenyl)-3-[(5-amino-2H-[1,2,4]triazol-3-yl)sulfanylmethyl]benzamide] | 13 µM |
| COc1ccc(NC(=O)c2cccc(CSc3ncnc4[nH]ncc34)c2)cn1 [Example B-2] | 1.82 µM |
| Cc1cc(NC(=O)c2cccc(CSc3ncnc4[nH]ncc34)c2)no1 [Example B-4, N-(5-Methylisoxazol-3-yl)-3-[(1H-pyrazolo[3,4-d]pyrimidin-4-yl)sulfanylmethyl]benzamide] | 35 µM |
| O=C(NCc1ccncc1)c1cccc(CSc2ncnc3[nH]ncc23)c1 [Example B-5, N-(Pyridin-4-yl)methyl-3-[(1H-pyrazolo[3,4-d]pyrimidin-4-yl)sulfanylmethyl]benzamide] | 11 µM |
| COc1ccccc1CNC(=O)c1cccc(CSc2ncnc3[nH]ncc23)c1 [Example B-7, N-(2-Methoxybenzyl)-3-[(1H-pyrazolo[3,4-d]pyrimidin-4-yl)sulfanylmethyl]benzamide] | 3.31 µM |
| COc1ccccc1NC(=O)c1cccc(CSc2ncnc3[nH]ncc23)c1 [Example B-9, N-(2-Methoxyphenyl)-3-[(1H-pyrazolo[3,4-d]pyrimidin-4-yl)sulfanylmethyl]benzamide] | 17 µM |
| O=C(Nc1cccc(OC(F)(F)F)c1)c1cccc(CSc2ncnc3[nH]ncc23)c1 [Example B-20] | 0.026 µM |
| Cc1cc(C)cc(NC(=O)c2cccc(CSc3ncnc4[nH]ncc34)c2)c1 [Example B-21, 3-[(1H-Pyrazolo[3,4-d]pyrimidin-4-yl)sulfanylmethyl]-N(3,5-dimethylphenyl)-benzamide] | 0.208 µM |
| O=C(Nc1cccc(S(=O)(=O)C(F)(F)F)c1)c1cccc(CSc2ncnc3[nH]ncc23)c1 [Example B-24, 3-[(1H-Pyrazolo[3,4-d]pyrimidin-4-yl)sulfanylmethyl]-N(3-trifluoromethylsulfonylphenyl)-benzamide] | 0.037 µM |
| Cc1ccc2cc(NC(=O)c3cccc(SCc4cccnc4)c3)ccc2n1 [Example D-3, N-(2-Methyl-quinolin-6-yl)-3-(pyridin-3-ylmethylsulfanyl)-benzamide dihydrochloride] | 0.133 µM |
| COc1cc(NC(=O)c2cccc(OCc3cncc4ccccc34)c2)cc(OC)c1OC [Example K-2, 3-(Isoquinolin-4-yl)methoxy-N-(3,4,5-trimethoxyphenyl)benzamide hydrochloride] | 0.138 µM |
| COc1cc(NC(=O)c2cccc(OCc3cccnc3)c2)cc(OC)c1OC [Example K-5, 3-(Pyridin-3-yl)methoxy-N-(3,4,5-trimethoxyphenyl)benzamide] | 1.27 µM |
| O=C(Nc1ccc2ccccc2c1)c1cccc(OCc2cccnc2)c1 [Example K-6, N-(Naphthalen-2-yl)-3-(pyridin-3-yl)methoxybenzamide] | 0.2 µM |
| C=CCn1ccc2cc(NC(=O)c3cccc(OCc4cccnc4)c3)ccc21 [Example K-7, N-(1-Allyl-1H-indol-5-yl)-3-(pyridin-3-yl)methoxy-benzamide] | 0.122 µM |
| O=C(Nc1ccc2ncccc2c1)c1cccc(OCc2cccnc2)c1 [Example K-8, 3-(Pyridin-3-yl)methoxy-N-quinolin-6-yl-benzamide] | 0.707 µM |

Continued, values first:

| Ki | SMILES |
| --- | --- |
| 0.325 µM | O=C(NOCc1ccccc1)c1cccc(OCc2cncc3ccccc23)c1 [Example R-7, N-Benzyloxy-3-(isoquinolin-4-ylmethoxy)-benzamide] |
| 0.0136 µM | Cc1cc(NC(=O)c2cc(CCc3cncc4ccccc34)ccc2F)ccc1C(C)C [Example T-1, 2-Fluoro-N-(4-isopropyl-3-methyl-phenyl)-5-(2-isoquinolin-4-yl-ethyl)-benzamide] |
| 0.068 µM | Cc1ccc2cc(NC(=O)c3cccc(CCc4cccnc4)c3)ccc2n1 [Example U-1, N-(2-Methyl-quinolin-6-yl)-3-(2-pyridin-3-yl-ethyl)-benzamide hydrochloride] |

Same assay, conditions: @ 50 nM; read-out: FLVK-P percent inhibition

| SMILES | inhibition at 0.05 µM |
| --- | --- |
| C=CCc1cc(NC(=O)c2cccc(OCc3cncc4ccccc34)c2)cc(CC=C)c1C [Example R-1, N-(3,5-Diallyl-4-methyl-phenyl)-3-(isoquinolin-4-ylmethoxy)-benzamide] | 49% |
| Cc1cc(C)nc(NC(=O)c2cccc(CCc3cncc4ccccc34)c2)c1 [Example S-6, N-(4,6-Dimethyl-pyridin-2-yl)-3-(2-isoquinolin-4-yl-ethyl)-benzamide] | 6% |

Same assay, conditions: @ 1 μM; read-out: FLVK-P percent inhibition

| SMILES | inhibition at 1 µM |
| --- | --- |
| CC(C)c1ccc(NC(=O)c2cccc(CSc3ncnc4[nH]ncc34)c2)cc1 [Example B-19, 3-[(1H-Pyrazolo[3,4-d]pyrimidin-4-yl)sulfanylmethyl]-N(4-isopropylphenyl)-benzamide] | 42% |
| CC(O)c1cccc(NC(=O)c2cccc(CSc3ncnc4[nH]ncc34)c2)c1 (centres unmarked) [Example B-22] | 32% |
| CN(C)c1ccc(NC(=O)c2cccc(CSc3ncnc4[nH]ncc34)c2)cc1 [Example B-23, 3-[(1H-Pyrazolo[3,4-d]pyrimidin-4-yl)sulfanylmethyl]-N(4-dimethylaminophenyl)-benzamide] | 17% |
| CN(C)c1cccc(NC(=O)c2cccc(CSc3ncnc4[nH]ncc34)c2)c1 [Example B-25, 3-[(1H-Pyrazolo[3,4-d]pyrimidin-4-yl)sulfanylmethyl]-N(3-dimethylaminophenyl)-benzamide] | 26% |
| COc1cc(/C=C/c2cc(CNc3cccc(C(=O)Nc4ccccc4)c3)n[nH]2)ccc1O [Example I-2, 3-[({5-[(E)-2-(4-hydroxy-3-methoxyphenyl)ethenyl]-1H-pyrazol-3-yl}methyl)amino]-N-phenylbenzamide] | 16% |
| O=C(Nc1ccccc1)c1cccc(CCc2cncc3ccccc23)c1 [Example S-1, 3-(2-Isoquinolin-4-yl-ethyl)-N-phenyl-benzamide] | 2% |

Other lines, results leading:

| inhibition at 1 µM | SMILES |
| --- | --- |
| 9% | Cc1cc(C)c2ccc(NC(=O)c3cccc(OCc4cncc5ccccc45)c3)nc2n1 [Example R-9, N-(5,7-dimethyl[1,8]naphthydrin-2-yl)-3-(isoquinolin-4-ylmethoxy)-benzamide] |
| 28% | CC1CC(NC(=O)c2cccc(CCc3cncc4ccccc34)c2)CC(C)(C)C1 (centres unmarked) [Example S-2, 3-(2-Isoquinolin-4-yl-ethyl)-N-(3,3,5-trimethyl-cyclohexyl)-benzamide] |
| 42% | COc1cc(C(=O)Nc2cccc(CSc3ncnc4[nH]ncc34)c2)ccc1O [Example V-3, N-{3-[(1H-pyrazolo[3,4-d]-pyrimidin-4-yl)sulfanylmethyl]phenyl}-(4-hydroxy-3-methoxy)benzamide] |

Same assay, conditions: @ 5 μM; read-out: FLVK-P percent inhibition

| SMILES | inhibition at 5 µM |
| --- | --- |
| O=C(NNc1ccc(C(F)(F)F)cc1)c1cccc(OCc2cncc3ccccc23)c1 [Example R-6, 3-(Isoquinolin-4-ylmethoxy)-benzoic acid N′-(4-trifluoromethyl-phenyl)hydrazide] | 16% |
| O=C(NNc1ccccc1)c1cccc(OCc2cncc3ccccc23)c1 [Example R-8, 3-(Isoquinolin-4-ylmethoxy)-benzoic acid N′-phenyl-hydrazide] | 4% |

Same assay, conditions: μM

| SMILES | Ki |
| --- | --- |
| COc1cc(NC(=O)c2cccc(CSc3nc(N)n[nH]3)c2)cc(OC)c1OC [Example A-2, N-(3,4,5-Trimethoxyphenyl)-3-[(5-amino-2H-[1,2,4]triazol-3-yl)sulfanylmethy]benzamide] | 100 µM |
